This experiment concerns the target T1, Human PPARγ2 (Homo sapiens, UniProt P37231).
T1 construct: The full length human cDNA for PPARγ2 and PPARδ were subcloned into the PGEX-2T and PGEX-KT; made in house; host or cells: E. coli (pGEX-2T vector)
T1 sequence (P37231 1-505): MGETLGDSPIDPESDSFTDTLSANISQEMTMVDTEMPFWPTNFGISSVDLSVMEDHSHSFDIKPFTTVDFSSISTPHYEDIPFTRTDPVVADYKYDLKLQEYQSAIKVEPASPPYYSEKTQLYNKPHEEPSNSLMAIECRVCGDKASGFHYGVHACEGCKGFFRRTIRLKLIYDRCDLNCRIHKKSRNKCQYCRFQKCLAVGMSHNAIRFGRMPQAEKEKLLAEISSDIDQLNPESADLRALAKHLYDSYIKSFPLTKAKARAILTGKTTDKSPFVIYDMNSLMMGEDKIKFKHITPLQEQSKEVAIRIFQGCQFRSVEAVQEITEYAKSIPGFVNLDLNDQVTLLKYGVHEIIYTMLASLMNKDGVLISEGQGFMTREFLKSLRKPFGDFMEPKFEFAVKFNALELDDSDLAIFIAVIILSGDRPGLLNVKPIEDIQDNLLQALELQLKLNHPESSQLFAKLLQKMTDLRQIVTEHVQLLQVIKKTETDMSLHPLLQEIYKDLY
Kind of experiment: [3H]AD-5075 displacement assay for PPARγ2. The class given is binding. Conditions: gst-fusion human PPARγ2, charcoal separation, ~16 h at 4° C. The source says: Compounds of the instant invention which are useful for the above discussed treatments can be identified and/or characterized by employing the PPAR δ, and γ binding assays. The assays are useful in predicting or quantitating in vivo effects having to do with the control or modulation of glucose, free fatty acid, triglyceride, insulin or cholesterol. To evaluate IC50 or EC50, values the compounds were titrated in the appropriate assay using different concentrations of the compound to be tested. To obtain the appropriate values (%Inhibition-IC50, or %Activation-EC50), the data resulting from the assays were then analyzed by determining the best fit of a 4 parameter function to the data using the Levenberg-Marquardt non-linear fitting algorithm in Kaleidagraph (Synergy Software, Reading, Pa.). The human nuclear receptor cDNA for PPARδ (hPPARδ) has been cloned from a human osteosarcoma cell cDNA library and is fully described in A. Schmidt et al., Molecular Endocrinology, 6:1634-1641 (1992), herein incorporated by reference in its entirety. See A. Elbrecht et al., Biochem. and Biophy. Res. Comm. 224:431-437 (1996) and T. Sher et al., Biochem. 32:5598-5604 (1993) for a description of the human nuclear receptor gene PPARγ and α.
Human PPARγ2 and PPARδ, independently, were prepared as gst-fusion proteins in E. coli. […]

The structures appear in SMILES notation.

Broadly, the Kd is a measure of binding affinity in units of concentration. Consider `Cc1oc(-c2ccccc2)nc1C(O)COc1ccc(CC2SC(=O)NC2=O)cc1` (stereo not shown) [AD-5075], for which the Kd was approximately 1 nM.

The record behind these values is patent publication US6515015B1, “Antidiabetic agents based on aryl and heteroarylacetic acids” (Merck & Co. Inc., priority 1996, dated 2003).
